Measurements: US20160047819A1, “METHOD FOR DIAGNOSING VAGINAL INFECTIONS” (priority 2013, published 2016)

System: vaginal proteome (human proteins in vaginal fluid)
Assay: MS/MS proteomic analysis of vaginal fluid pools, BV-affected women before (BV) and after rifaximin/placebo treatment: human proteins
Type: in vivo
Method: Proteomic analysis was performed on 9 pools of vaginal isolates, grouped according to the status of the BV infection: • H pool (from 41 healthy women); BV pool (from 39 BV-affected women); • A-R pool (from 2 women who were in remission after rifaximin treatment-group A); • A-N pool (from 8 women who were not in remission after rifaximin treatment-group A); • B-R pool (from 5 women who were in remission after rifaximin treatment-group B); • B-N pool (from 5 women who were not in remission after rifaximin treatment-group B); • C-R pool (from 4 women who were in remission after rifaximin treatment-group C); • C-N (from 5 women who were not in remission after rifaximin treatment-group C); • D-N (from 10 women who were not in remission after placebo treatment-group D). Scheme of the vaginal fluids collected for testing the diagnostic method is represented in FIG. 1.
In these figures are reported the peptides in the fractionated pools of healthy women, women affected by BV and peptides of women treated with rifaximin. The treatment with rifaximin was at dosage of 100 mg/day for 5 days; (remission, A-R; no remission, A-N), 25 mg/5 days (remission, B-R; no remission, B-N), 100 mg/2 days (remission, C-R; no remission, C-N), and placebo for 5 days (D-N). Two types of comparisons were carried out: (i) between fractionated pools of proteins from vaginal fluid of healthy women (HF) versus fractionated pool of proteins from vaginal fluid of women affected by bacterial vaginosis (BVF); (ii) between whole pools of proteins from vaginal fluid of women affected by BV treated by administering different doses of rifaximin or placebo before (BV) and after (A-R, A-N, B-R, B-N, C-R, C-N, D-N) treatment. Fractioned pools of proteins are obtained, e.g., by separating the proteins by separation on membrane filtration with different membrane porosity, prior to MS/MS analysis.
Nine volumes of acetone: HCl (10:1) were added to the supernatant of the vaginal rinsing and proteins were precipitated by centrifuging at 12000 g for 10 min. The protein pellet was dissolved in 1 mL of 70% ethanol and the sample was spun at 12000 g for 10 min. One mL of acetone was added and the proteins were further precipitated by centrifugation at 12000 g for 5 min. After removing supernatant, pellet was dried by SpeedVac concentrator (Thermo Savant ISS110, Thermo Fisher Scientific, Waltham, Mass.) and then stored at −20° C.
Protein extract was quantified using the 2-D Quant Kit (GE Healthcare, Uppsala, Sweden) according to the manufacturer's instructions.
Patients who were diagnosed for BV at the study visit V1 were included in a multicentre, double-blind, randomised, placebo-controlled study (EudraCT: 2009-011826-32), that was performed to compare the efficacy of different doses of rifaximin vaginal tablets versus placebo for the treatment of BV. The patients underwent a randomisation visit and were distributed into 4 treatment groups: group A received 100 mg rifaximin vaginal tablet once daily for 5 days (n=10), group B received 25 mg rifaximin vaginal tablet once daily for 5 days (n=10), group C received 100 mg rifaximin vaginal tablet once daily for the first 2 days and placebo vaginal tablet for the remaining 3 days (n=9), group D received placebo vaginal tablet once daily for 5 days (n=10). Study medication was administered intra-vaginally at bedtime. After 7 to 10 days from the end of the therapy a follow-up visit (V3) was performed. Remission was evaluated at V3 according to Amsel's criteria (<3) and Gram stain Nugent score (≦3) (Table 1).
Standardized vaginal rinsings with 2 mL of saline were collected for analysis at V1 and V3 by flushing and re-aspirating the fluid through a 22 Gauge needle in the left, central and right upper vaginal vaults. The vaginal rinsings were subsequently stored at −80° C. until use.
MS/MS analysis was carried out for H and BV pools and for the whole BV, A-R, A-N, B-R, B-N, C-R, C-N and D-N pools containing 50 μg of protein each. […]

## CO[C@H]1/C=C/O[C@@]2(C)Oc3c(C)c(O)c4c(O)c(c5c(nc6cc(C)ccn65)c4c3C2=O)NC(=O)/C(C)=C\C=C\[C@H](C)[C@H](O)[C@@H](C)[C@@H](O)[C@@H](C)[C@H](OC(C)=O)[C@@H]1C [rifaximin]
Pool C-N after treatment
  Ratio X/H Sciellin (O95171): 0.0
  Ratio X/H Semenogelin-2 (Q02383): −1.8
  Ratio X/H Serine protease 27 (Q9BQR3): 0.0
  Ratio X/H Serine/threonine-protein kinase ULK1 (O75385): −1.7
  Ratio X/H Serotransferrin (P02787): −1.5
  Ratio X/H Serpin B3 (P29508): 1.6
  Ratio X/H Serpin B4 (P48594): 0.0
  Ratio X/H Serpin B5 (P36952): −2.6
  Ratio X/H Serpin B6 (P35237): 0.0
  Ratio X/H Serpin B9 (P50453): 0.0
  Ratio X/H Serpin B12 (Q96P63): 0.0
  Ratio X/H Serpin B13 (Q9UIV8): 0.0
  Ratio X/H Serum albumin (P02768): −1.6
  Ratio X/H Serum paraoxonase/arylesterase 1 (P27169): 1.5
  Ratio X/H Small proline-rich protein 3 (Q9UBC9): 1.7
  Ratio X/H Stanniocalcin-1 (P52823): 4.0
  Ratio X/H Sulfhydryl oxidase 1 (O00391): 0.0
  Ratio X/H Superoxide dismutase [Cu—Zn] (P00441): 0.0
  Ratio X/H Suprabasin (Q6UWP8): 3.9
  Ratio X/H Syntenin-1 (O00560): 0.0
  Ratio X/H Talin-1 (Q9Y490): 0.0
  Ratio X/H Tctex1 domain-containing protein 2 (Q8WW35): −13.6
  Ratio X/H Teneurin-3 (Q9P273): 10.2
  Ratio X/H Thioredoxin (P10599): 0.0
  Ratio X/H Transaldolase (P37837): −2.2
  Ratio X/H Transmembrane protease serine 11D (O60235): 0.0
  Ratio X/H Transthyretin (P02766): −1.8
  Ratio X/H Tumor protein D54 (O43399): 0.0
  Ratio X/H UTP--glucose-1-phosphate uridylyltransferase (Q16851): 0.0
  Ratio X/H UV excision repair protein RAD23 homolog B (P54727): −1.5
  Ratio X/H Uronyl 2-sulfotransferase (Q9Y2C2): −917.5
  Ratio X/H Versican core protein (P13611): 0.0
  Ratio X/H Vinculin (P18206): 0.0
  Ratio X/H Vitamin D-binding protein (P02774): 0.0
  Ratio X/H Werner syndrome ATP-dependent helicase (Q14191): 12.4
  Ratio X/H Zinc finger protein 185 (O15231): 1.5
  Ratio X/H Zinc finger protein 335 (Q9H4Z2): 0.0
  Ratio X/H Zinc-alpha-2-glycoprotein (P25311): 0.0
  Ratio X/H Zyxin (Q15942): 2.0
Pool C-R after treatment
  Ratio X/H Sciellin (O95171): 0.0
  Ratio X/H Semenogelin-2 (Q02383): 0.0
  Ratio X/H Serine protease 27 (Q9BQR3): −1.5
  Ratio X/H Serine/threonine-protein kinase ULK1 (O75385): −7.4
  Ratio X/H Serotransferrin (P02787): 0.0
  Ratio X/H Serpin B3 (P29508): 2.6
  Ratio X/H Serpin B4 (P48594): 0.0
  Ratio X/H Serpin B5 (P36952): 2.0
  Ratio X/H Serpin B6 (P35237): −2.2
  Ratio X/H Serpin B9 (P50453): −6.6
  Ratio X/H Serpin B12 (Q96P63): −1.7
  Ratio X/H Serpin B13 (Q9UIV8): 0.0
  Ratio X/H Serum albumin (P02768): −2.1
  Ratio X/H Serum paraoxonase/arylesterase 1 (P27169): 0.0
  Ratio X/H Small proline-rich protein 3 (Q9UBC9): 4.4
  Ratio X/H Stanniocalcin-1 (P52823): 13.3
  Ratio X/H Sulfhydryl oxidase 1 (O00391): −1.6
  Ratio X/H Superoxide dismutase [Cu—Zn] (P00441): 0.0
  Ratio X/H Suprabasin (Q6UWP8): 14.4
  Ratio X/H Syntenin-1 (O00560): −2.3
  Ratio X/H Talin-1 (Q9Y490): 0.0
  Ratio X/H Tctex1 domain-containing protein 2 (Q8WW35): 0.0
  Ratio X/H Teneurin-3 (Q9P273): 0.0
  Ratio X/H Thioredoxin (P10599): 0.0
  Ratio X/H Transaldolase (P37837): 2.4
  Ratio X/H Transmembrane protease serine 11D (O60235): 0.0
  Ratio X/H Transthyretin (P02766): 0.0
  Ratio X/H Tumor protein D54 (O43399): 0.0
  Ratio X/H UTP--glucose-1-phosphate uridylyltransferase (Q16851): 0.0
  Ratio X/H UV excision repair protein RAD23 homolog B (P54727): −2.2
  Ratio X/H Uronyl 2-sulfotransferase (Q9Y2C2): −7.7
  Ratio X/H Versican core protein (P13611): 0.0
  Ratio X/H Vinculin (P18206): 0.0
  Ratio X/H Vitamin D-binding protein (P02774): 0.0
  Ratio X/H Werner syndrome ATP-dependent helicase (Q14191): 209.6
  Ratio X/H Zinc finger protein 185 (O15231): 1.8
  Ratio X/H Zinc finger protein 335 (Q9H4Z2): 0.0
  Ratio X/H Zinc-alpha-2-glycoprotein (P25311): 0.0
  Ratio X/H Zyxin (Q15942): 0.0
